Values quoted from earlier work, collected in US6652882B1, “Controlled release formulation containing bupropion” (Intellipharmaceutics Corp, priority 1997, dated 2003).

How the values were obtained:
[1] = during storage
[2] = oral administration; mammals such as rats and dogs

- absolute bioavailability [2]: 5% to 20
SMILES: CC(NC(C)(C)C)C(=O)c1cccc(Cl)c1 (racemic) [Bupropion, (±)-2-(tert-butylamino)3′-chloropropiophenone]
- stability on storage [1]: subject to hydrolytic decomposition during storage
